Experimental data from US20240150755A1, “MODULATING REGULATORY T CELL FUNCTION IN AUTOIMMUNE DISEASE AND CANCER” (Salk Institute for Biological Studies, priority 2021, published 2024).

Columns and labels:
Foxp3 target genes = test: RNA-seq and gene set enrichment analysis in Treg cells; assay type: cell-based, mouse
Excerpt: For large scale Treg culture, Tregs were first expanded in Rosa-Cas9/Foxp3^Thy1.1 mice by injecting IL-2:IL-2 antibody immune complex according protocol described in Webster et. al (J Exp Med 206, 751-760, 2009). Spleen and lymph node Treg cells were labeled with PE-conjugated Thy1.1 antibody and isolated by magnetic selection using anti-PE microbeads (Mitenyl #130-048-801). All isolated Treg cells were activated by plate bound anti-CD3 and anti-CD28 antibodies and cultured with X-VIVO® 20 media (LONZA #04-448Q) supplemented by 1× Pen/Strep, 1× Sodium pyruvate, 1× HEPES, 1× GlutaMax™, 55 μM beta-mercaptoethanol in the presence of IL-2 at 500 units/mL. For experiments with Brd9 degradation, Treg cells were treated at day 0 with 2.5 μM dBRD9 (Tocris #6606) and cultured for four days for RNA- and ChIP-seq and 0.16-10 μM treated at day 0 and cultured dBRD9 for four days for Foxp3 MFI, cell viability and cell proliferation assays. Live cells were enriched by Ficoll-Paque® 1.084 (GE Health 17-5446-02) for RNA-seq and ChIP-seq.
RNA from 1-3×10^6 cells was extracted and purified with TRIzol™ reagent (Thermo Fisher) according to manufacturer's instructions. RNA-seq libraries were prepared using Illumina® TruSeq® Stranded mRNA kit following manufacturer's instructions with 5 μg of input RNA.
Single-end 50 bp reads were aligned to the mouse genome mm10 using STAR alignment tool (V2.5) (Dobin et al., Bioinformatics 29:15-21, 2013). RNA expression was quantified as raw integer counts using analyzeRepeats.pl in HOMER (Heinz et al., Mol Cell 38:576-589, 2010) using the following parameters: -strand both -count exons -condenseGenes -noadj. To identify differentially expressed genes, getDiffExpression.pl in HOMER was used, which uses the DESeq2R package to calculate the biological variation within replicates. Cut-offs were set at log 2 FC=0.585 and FDR at 0.05 (Benjamin-Hochberg). Principal Component Analysis (PCA) was performed with the mean of transcript per million (TPM) values using Cluster 3.0 with the following filter parameters: at least one observation with absolute value equal or greater than two and gene vector of four. TPM values were log transformed then centered on the mean.
GSEA software (Mootha et al., Nat Genet 34:267-273, 2003; Subramanian et al., PNAS 102:15545-15550, 2005) was used to perform the analyses with the following parameters: number of permutations=1000; enrichment statistic=weighted; and metric for ranking of genes=difference of classes (Input RNA-seq data was log-transformed). For GSEA analysis, input RNA-seq data contained the normalized log-transformed reads of the 1,325 differentially expressed genes (DEGs) in sgFoxp3/sgNT Treg cells. The compiled gene list included GSEA Gene Ontology, Immunological Signature, Curated Gene, and the up and down DEGs in sgBrd9/sgNT Treg cells.
For gene expression analysis in FIG. 42F, Foxp3 ChIP-seq tags were quantified at the union of sites bound by Foxp3 in sgNT and sgBrd9 using the annotatePeaks.pl command in HOMER with size-given and each site was annotated to a gene by mapping to the nearest TSS. Sites were ranked from least to largest Foxp3 ChIP-seq Log2FC in sgBrd9 vs sgNT and divided into quartiles. Gene expression for the genes in the top and bottom quartiles (Brd9-dependent and -independent, respectively) was then plotted using RNA-seq data from Treg cells transduced with sgBrd9, sgSmarcd1, or sgPbrm1 compared to sgNT. […]

[1] = test system: Brd9-dependent Foxp3 binding sites; test: ATAC-seq chromatin accessibility in Treg cells; assay type: cell-based, mouse; settings: sgBrd9 vs sgNT Treg cells; 61/1699 sites
Method: ATAC-seq was performed according to previously published protocol (Corces et al., Nat Methods 14:959-962, 2017). Briefly, Tregs transduced with either sgNT or sgBrd9 were subjected to Ficoll™ gradient purification to remove dead cells and ensure capture of cells that were 99% viable. 50,000 Treg cells were collected in duplicates per genotype and washed first with cold 1×PBS then with Resuspension buffer (RSB; 10 mM Tris-HCl pH 7.4, 10 mM NaCl, 3 mM MgCl2). Cells were lysed in 50 μL of RSB supplemented with 0.1% NP40, 0.01% Digitonin and 0.1% Tween 20 for 3 minutes on ice then diluted with 1 mL of RSB with 0.1% Tween 20. […]
ATAC-seq data analysis used the following tools and versions: cutadapt (v2.4), samtools (v1.9), Picard (v1.7.1), BWA (v0.7.12), macs2 (v2.1.2), and HOMER (v4.11). Paired end 42 bp reads were trimmed using cutadapt to remove Nextera™ adapter sequences then aligned to the reference mouse genome mm10 using BWA. The following were filtered out using Picard and samtools: duplicate reads, mitochondrial reads, low quality reads (Q<20), and improperly paired or unpaired reads. Quality was assessed by calculating Fraction of Reads In Peaks ([…]) which were >40% for all samples. TSS enrichment was determined using mm10 Refseq TSSs. […]

sgBrd9: sgRNA targeting Brd9, ATTAACCGGTTTCTCCCGGG (SEQ ID NO: 12) (expressed or natural sequence)
enrichment of increased/decreased genes among sgFoxp3 regulated genes (GSEA) (Foxp3 target genes; sgBrd9/sgNT vs sgFoxp3/sgNT Treg cells): significantly enriched among genes that increase upon sgFoxp3 targeting
gene expression of Brd9-dependent vs Brd9-independent Foxp3 target genes (Foxp3 target genes; sgRNA transduced Treg cells vs sgNT): significantly more affected
Brd9-dependent Foxp3 binding sites with significant reduction in chromatin accessibility [1]: 3.5%
